Test system: amyloid-beta in CD31-positive vessels
Test: Assessment of CAA in APP23 mice by CD31/NT12 double fluorescence immunohistochemistry and image analysis
Assay type: in vivo, mouse
Procedure: Amyloid plaques were stained using a rabbit anti-Aβ primary antibody (NT12) which recognizes the C-terminal part of the amyloid peptide (the antibody was raised as described in Schrader-Fischer G and Paganetti P A, 1996, and Schrader-Fischer G et al., 1997). The vascular endothelial cells were detected using a rat anti-CD31 antibody (reference DIA310) from Dianova GmbH (Hamburg, Germany). All stainings were performed using the fully automated instrument Ventana Discovery® Ultra (Roche Diagnostics Schweiz AG, Rotkreuz, Switzerland). All chemicals were provided by Roche Diagnostic.
All study animals were used and brain tissue sections of 3 micrometers were freshly cut and collected on SuperFrost+ slides. The tissues sections were de-paraffinized and rehydrated under solvent-free conditions (EZprep solution) followed by antigen retrieval (demasking) performed by heat retrieval cycles for 32 min in a EDTA based buffer (CC1 solution). Subsequently, slides were blocked for 4 min using the DISCOVERY Inhibitor (reference 07017944001 (Roche)). The primary antibody diluted at 1/10′000 in antibody diluent was manually added on tissue sections and incubated for 1 h at room temperature. A short post-fixation (glutaraldehyde at 0.05%) was performed before applying the multimer UltraMap-anti Rabbit HRP ready to use antibody (reference 05269717001) for 16 min.
Detection was performed using the DISCOVERY FITC® following the manufacturer's recommendations. Slides were then heat denaturated at 92° C. for 20 min before a manual application of the second primary antibody (rat anti-CD31 diluted at 1/1′000 in antibody diluent) and incubated for 1 h. Multimer UltraMap-anti-Rat HRP antibody (reference 05891884001) was used for 20 min to detect CD31 in combination with the DISCOVERY Rhodamine kit (reference 07259883001).
The slides were washed and mounted using Prolong® Gold antifade reagent (reference P36931, ThermoFisher, Switzerland) and further scanned with the Hamamatsu slide scanner instrument (NanoZoomer 2.0 HT, scanning software NDP-Scan Vers. 2.5, Hamamatsu Photonics France, Swiss Office, Solothurn, Switzerland) at the 40× objective. The scanning settings were as follows: the exposure time with the DAPI filter was set at 28.5 ms as well as for the FITC filter and TRITC filter (detection of Rhodamine).
For the quantitative plaque and vessel-associated amyloid-beta evaluation based on image analysis, a proprietary image analysis platform (ASTORIA, Automated Stored Image Analysis) was developed based on MS Visual Studio 2010 and many functions from Matrox MIL V9 libraries (Matrox Inc, Quebec, Canada).
For the beta-amyloid plaque and vessel analysis, the following sequence of steps was performed: • Slides were scanned with Hamamatsu Nanozoomer at 40× magnification. […]

[1] = 0.03 g/kg food, 6 months, all CD31+ vessels
[2] = 0.03 g/kg food, 6 months, large CD31-positive vessels
[3] = 0.03 g/kg vs vehicle, all CD31+ vessels
[4] = 0.03 g/kg vs vehicle, large vessels
[5] = 0.03 g/kg vs vehicle, small + medium vessels

Structure (SMILES): C[C@@]1(c2nc(NC(=O)c3ncc(C(F)(F)F)cc3Cl)ccc2F)CO[C@@](C)(C(F)(F)F)C(N)=N1 [Compound 1, N-(6-((3R,6R)-5-amino-3,6-dimethyl-6-(trifluoromethyl)-3,6-dihydro-2H-1,4-oxazin-3-yl)-5-fluoropyridin-2-yl)-3-chloro-5-(trifluoromethyl)picolinamide]
- % of large vessels with 0% Aβ (0.03 g/kg food, 6 months): 9.14 ± 9.14%
- % of large vessels with 1-10% Aβ (0.03 g/kg food, 6 months): 17.4 ± 1.63%
- % of large vessels with 10-25% Aβ (0.03 g/kg food, 6 months): 11.2 ± 1.68%
- % of large vessels with 25-50% Aβ (0.03 g/kg food, 6 months): 17.5 ± 2.63%
- % of large vessels with 50-75% Aβ (0.03 g/kg food, 6 months): 27.7 ± 1.97%
- % of large vessels with >10% Aβ (0.03 g/kg food, 6 months): 73.5 ± 3.4%
- % of large vessels with >75% Aβ (0.03 g/kg food, 6 months): 17.0 ± 2.92%
- % of small + medium vessels with 0% Aβ (0.03 g/kg food, 6 months): 63.7 ± 2.83%
- % of small + medium vessels with 1-10% Aβ (0.03 g/kg food, 6 months): 22.3 ± 2.65%
- % of small + medium vessels with 10-25% Aβ (0.03 g/kg food, 6 months): 4.86 ± 0.48%
- % of small + medium vessels with 25-50% Aβ (0.03 g/kg food, 6 months): 3.55 ± 0.35%
- % of small + medium vessels with 50-75% Aβ (0.03 g/kg food, 6 months): 2.5 ± 0.31%
- % of small + medium vessels with >10% Aβ (0.03 g/kg food, 6 months): 14.0 ± 1.01%
- % of small + medium vessels with >75% Aβ (0.03 g/kg food, 6 months): 3.11 ± 0.44%
- CAA Frequency (number small + medium vessels with >10% Aβ normalized to sample area, *10^7) (0.03 g/kg food, 6 months): 91 ± 5.9
- Number of large CD31+ vessels (normalized to total CD31 positive vessel numbers in %) (0.03 g/kg food, 6 months): 1.89 ± 0.17%
- Number of small + medium CD31+ vessels (normalized to total CD31 positive small + medium vessel numbers in %) (0.03 g/kg food, 6 months): 98.1 ± 0.17%
- Number small + medium vessels with >10% Aβ, mean ± SEM (0.03 g/kg food, 6 months): 288 ± 21.9
- Total number CD31+ vessels (normalized to total sample area, *10^5), mean ± SEM (0.03 g/kg food, 6 months): 6.52 ± 0.4
- Total vessel-associated NT12 area (normalized to total small + medium CD31+ vessel area) (0.03 g/kg food, 6 months): 0.286 ± 0.0313
- % of vessels with 0% Aβ [1]: 60.3 ± 3.49%
- % of vessels with 1-10% Aβ [1]: 23.2 ± 2.6%
- % of vessels with 10-25% Aβ [1]: 5.65 ± 0.8%
- % of vessels with 25-50% Aβ [1]: 4.06 ± 0.44%
- % of vessels with 50-75% Aβ [1]: 3.13 ± 0.35%
- % of vessels with >10% Aβ [1]: 16.5 ± 0.76%
- % of vessels with >75% Aβ [1]: 3.7 ± 0.55%
- CAA Frequency (number vessels with >10% Aβ normalized to sample area, *10^7) [1]: 94 ± 6.5
- Number vessels with >10% Aβ, mean ± SEM [1]: 319 ± 22.2
- Total vessel-associated NT12 area (normalized to total CD31+ area) [1]: 0.65 ± 0.07
- CAA Frequency (number vessels with >10% Aβ normalized to sample area, *10^7) [2]: 9.3 ± 1.0
- Number vessels with >10% Aβ, mean ± SEM [2]: 29 ± 3.0
- Total vessel-associated NT12 area (normalized to total CD31+ area) [2]: 0.79 ± 0.05
- % of large vessels with 0% Aβ, treatment effect vs vehicle (0.03 g/kg vs vehicle): −18%
- % of large vessels with 1-10% Aβ, treatment effect vs vehicle (0.03 g/kg vs vehicle): +19%
- % of large vessels with 10-25% Aβ, treatment effect vs vehicle (0.03 g/kg vs vehicle): +60%
- % of large vessels with 25-50% Aβ, treatment effect vs vehicle (0.03 g/kg vs vehicle): −9%
- % of large vessels with 50-75% Aβ, treatment effect vs vehicle (0.03 g/kg vs vehicle): −15%
- % of large vessels with >10% Aβ, treatment effect vs vehicle (0.03 g/kg vs vehicle): −1%
- % of large vessels with >75% Aβ, treatment effect vs vehicle (0.03 g/kg vs vehicle): +12%
- % of small + medium vessels with 0% Aβ, treatment effect vs vehicle (0.03 g/kg vs vehicle): −13%
- % of small + medium vessels with 1-10% Aβ, treatment effect vs vehicle (0.03 g/kg vs vehicle): +76%
- % of small + medium vessels with 10-25% Aβ, treatment effect vs vehicle (0.03 g/kg vs vehicle): +16%
- % of small + medium vessels with 25-50% Aβ, treatment effect vs vehicle (0.03 g/kg vs vehicle): −9%
- % of small + medium vessels with 50-75% Aβ, treatment effect vs vehicle (0.03 g/kg vs vehicle): −6%
- % of small + medium vessels with >10% Aβ, treatment effect vs vehicle (0.03 g/kg vs vehicle): +1%
- % of small + medium vessels with >75% Aβ, treatment effect vs vehicle (0.03 g/kg vs vehicle): 0%
- Total small + medium vessel-associated NT12 area (normalized to total CD31+ small + medium vessel area), treatment effect vs vehicle (0.03 g/kg vs vehicle): +6% n.s.
- % of vessels with 0% Aβ, treatment effect vs vehicle [3]: −17%
- % of vessels with 1-10% Aβ, treatment effect vs vehicle [3]: +82%
- % of vessels with 10-25% Aβ, treatment effect vs vehicle [3]: +34%
- % of vessels with 25-50% Aβ, treatment effect vs vehicle [3]: −2%
- % of vessels with 50-75% Aβ, treatment effect vs vehicle [3]: 0%
- % of vessels with >10% Aβ, treatment effect vs vehicle [3]: +12%
- % of vessels with >75% Aβ, treatment effect vs vehicle [3]: +12%
- CAA Frequency, treatment effect vs vehicle [3]: −4% n.s.
- Number vessels with >10% Aβ, treatment effect vs vehicle [3]: −10% n.s.
- Total vessel-associated NT12 area (normalized to total CD31+ area), treatment effect vs vehicle [3]: +14% n.s.
- CAA Frequency, treatment effect vs vehicle [4]: +20% n.s.
- Number vessels with >10% Aβ, treatment effect vs vehicle [4]: +4% n.s.
- Total vessel-associated NT12 area (normalized to total CD31+ area), treatment effect vs vehicle [4]: −1% n.s.
- CAA Frequency, treatment effect vs vehicle [5]: +2% n.s.
- Number vessels with >10% Aβ, treatment effect vs vehicle [5]: −12% n.s.
